From paper PMC8119466, “A screen of FDA-approved drugs identifies inhibitors of protein tyrosine phosphatase 4A3 (PTP4A3 or PRL-3)” (Scientific Reports, 2021) come the findings set out here.

SMILES strings stand for the structures. Where a name gives a salt, the structure may show the parent alone.

What all share (format): biochemical
Details in all cases: FDA-approved drug screen

In test [1] the target is T1, recombinant PRL-2 (Homo sapiens, UniProt Q12974).
T1 construct: 6xHis (N, cleaved yes); made in house; host or cells: E. coli One Shot BL21 Star
T1 sequence (Q12974 1-167): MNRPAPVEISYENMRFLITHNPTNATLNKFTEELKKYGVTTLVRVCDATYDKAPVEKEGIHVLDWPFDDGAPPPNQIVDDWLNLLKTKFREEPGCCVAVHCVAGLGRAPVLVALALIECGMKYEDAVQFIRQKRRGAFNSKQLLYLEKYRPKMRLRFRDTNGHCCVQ
Description: In vitro phosphatase assay (DiFMUP hydrolysis), PRL-2.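 Further: PRL-2 activity read as DiFMUP hydrolysis after 20 min at room temperature with drug, enzyme first pre-reduced at 4 °C for 20 min.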

The target in test [2] is T2, recombinant PRL-3 (Homo sapiens, UniProt O75365).
T2 construct: 6xHis (N, cleaved yes); made in house; host or cells: E. coli One Shot BL21 Star
Put plainly: In vitro phosphatase assay (DiFMUP hydrolysis), PRL-3. Further: test concentration or dose not given here.

The target of test [3] is T3, recombinant PRL-1 (Homo sapiens, UniProt Q93096).
T3 construct: 6xHis (N, cleaved yes); made in house; host or cells: E. coli One Shot BL21 Star
T3 sequence (Q93096 1-173): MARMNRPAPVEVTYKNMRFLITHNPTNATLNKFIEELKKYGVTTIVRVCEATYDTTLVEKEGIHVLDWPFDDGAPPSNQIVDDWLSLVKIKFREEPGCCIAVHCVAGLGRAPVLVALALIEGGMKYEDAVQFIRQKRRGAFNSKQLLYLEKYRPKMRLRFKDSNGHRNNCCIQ
Description: In vitro phosphatase assay (DiFMUP hydrolysis), PRL-1. Further: test concentration or dose not given here.

T2 sequence (O75365 whole entry): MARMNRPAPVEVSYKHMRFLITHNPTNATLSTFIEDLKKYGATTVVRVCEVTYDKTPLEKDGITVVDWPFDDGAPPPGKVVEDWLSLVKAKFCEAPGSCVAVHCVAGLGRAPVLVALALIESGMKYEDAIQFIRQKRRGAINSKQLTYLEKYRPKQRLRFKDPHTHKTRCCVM

In the case of `CC(=O)OCC(=O)NCCCOc1cccc(CN2CCCCC2)c1` [Roxatidine Acetate HCl], in test [1] (compared to DMSO), the “% Phosphatase Activity (compared to DMSO) PRL-2” value was 111%. Besides, the “% Phosphatase Activity (compared to DMSO) PRL-3” value in test [2] (compared to DMSO) came out at 95%. The “% Phosphatase Activity (compared to DMSO) PRL-1” value in test [3] (compared to DMSO) is given as 96%.
On to `COC(=O)C1=C(C)NC(C)=C(C(=O)OCCN(C)Cc2ccccc2)C1c1cccc([N+](=O)[O-])c1` (stereo not drawn) [Nicardipine HCl], for which the “% Phosphatase Activity (compared to DMSO) PRL-2” value in test [1] (compared to DMSO) is recorded as 80%. Also, in test [2] (compared to DMSO), the “% Phosphatase Activity (compared to DMSO) PRL-3” value is recorded as 68%. Also, in test [3] (compared to DMSO), the “% Phosphatase Activity (compared to DMSO) PRL-1” value came to 85%.
Regarding `COC(=O)N[C@H](C(=O)N1CCC[C@H]1c1ncc(-c2ccc(-c3ccc(-c4cnc([C@@H]5CCCN5C(=O)[C@@H](NC(=O)OC)C(C)C)[nH]4)cc3)cc2)[nH]1)C(C)C` [Daclatasvir (BMS-790052)], the “% Phosphatase Activity (compared to DMSO) PRL-2” value in test [1] (compared to DMSO) came out at 324%. Also, in test [2] (compared to DMSO), the “% Phosphatase Activity (compared to DMSO) PRL-3” value is listed as 236%. Also, in test [3] (compared to DMSO), the “% Phosphatase Activity (compared to DMSO) PRL-1” value is on record as 320%.
As for `CCN(CC)CCOC(=O)c1ccc(N)cc1` [Procaine], the “% Phosphatase Activity (compared to DMSO) PRL-2” value in test [1] (compared to DMSO) worked out at 94%. Further, the “% Phosphatase Activity (compared to DMSO) PRL-3” value in test [2] (compared to DMSO) is reported as 80%. Also, in test [3] (compared to DMSO), the “% Phosphatase Activity (compared to DMSO) PRL-1” value came out at 102%.
On to `CCCCNC(=O)NS(=O)(=O)c1ccc(C)cc1` [Tolbutamide], for which the “% Phosphatase Activity (compared to DMSO) PRL-2” value in test [1] (activity compared to DMSO) stood at 119%. In test [2] (activity compared to DMSO), the “% Phosphatase Activity (compared to DMSO) PRL-3” value came out at 91%. Further, the “% Phosphatase Activity (compared to DMSO) PRL-1” value in test [3] (activity compared to DMSO) was 104%.
Regarding `CN(C)CCC[C@@]1(c2ccc(F)cc2)OCc2cc(C#N)ccc21` [Escitalopram Oxalate], in test [1] (compared to DMSO), the “% Phosphatase Activity (compared to DMSO) PRL-2” value came to 117%. Besides, in test [2] (compared to DMSO), the “% Phosphatase Activity (compared to DMSO) PRL-3” value is recorded as 67%. In addition, the “% Phosphatase Activity (compared to DMSO) PRL-1” value in test [3] (compared to DMSO) came to 89%.
On the same counts, the results for `CC[C@H]1OC(=O)[C@H](C)[C@@H](O[C@H]2C[C@@](C)(OC)[C@@H](O)[C@H](C)O2)[C@H](C)[C@@H](O[C@@H]2O[C@H](C)C[C@H](N(C)C)[C@H]2O)[C@](C)(O)C[C@@H](C)[C@@H]2N[C@@H](COCCOC)O[C@H]([C@H]2C)[C@]1(C)O` [Dirithromycin] are 94%, 74% and 90%.
As for `O=S(=O)(O)Oc1ccc(C(c2ccc(OS(=O)(=O)O)cc2)c2ccccn2)cc1` [Sodium Picosulfate], the “% Phosphatase Activity (compared to DMSO) PRL-2” value in test [1] (activity compared to DMSO) is reported as 110%. The “% Phosphatase Activity (compared to DMSO) PRL-3” value in test [2] (activity compared to DMSO) was 81%. Also, in test [3] (activity compared to DMSO), the “% Phosphatase Activity (compared to DMSO) PRL-1” value came out at 115%.
`CC[C@@H]1/C=C(\C)C[C@H](C)C[C@H](OC)[C@H]2O[C@@](O)(C(=O)C(=O)N3CCCC[C@H]3C(=O)O[C@H](/C(C)=C/[C@@H]3CC[C@H](Cl)[C@H](OC)C3)[C@H](C)[C@@H](O)CC1=O)[C@H](C)C[C@@H]2OC` [Pimecrolimus]: in test [1] (compared to DMSO), the “% Phosphatase Activity (compared to DMSO) PRL-2” value worked out at 73%. The “% Phosphatase Activity (compared to DMSO) PRL-3” value in test [2] (compared to DMSO) amounted to 101%. The “% Phosphatase Activity (compared to DMSO) PRL-1” value in test [3] (compared to DMSO) amounted to 87%.
For `CNNCc1ccc(C(=O)NC(C)C)cc1` [Procarbazine HCl] the same measures were 90%, 87% and 103%.
For the molecule `Cn1nnc(-c2ccc(-c3ccc(N4C[C@H](COP(=O)(O)O)OC4=O)cc3F)cn2)n1` [Tedizolid Phosphate], the “% Phosphatase Activity (compared to DMSO) PRL-2” value in test [1] (activity compared to DMSO) was found to be 97%. In addition, the “% Phosphatase Activity (compared to DMSO) PRL-3” value in test [2] (activity compared to DMSO) came out at 87%. Also, the “% Phosphatase Activity (compared to DMSO) PRL-1” value in test [3] (activity compared to DMSO) amounted to 97%.
For the molecule `O=C(O)c1nn(Cc2ccc(Cl)cc2Cl)c2ccccc12` [Lonidamine], in test [1] (compared to DMSO), the “% Phosphatase Activity (compared to DMSO) PRL-2” value was 106%. In test [2] (compared to DMSO), the “% Phosphatase Activity (compared to DMSO) PRL-3” value stood at 85%. In test [3] (compared to DMSO), the “% Phosphatase Activity (compared to DMSO) PRL-1” value turned out to be 102%.
On the same counts, the results for `CCCCC1=NC2(CCCC2)C(=O)N1Cc1ccc(-c2ccccc2-c2nnn[nH]2)cc1` [Irbesartan] are 87%, 84% and 95%.
As for `CN(C)CCOC(C)(c1ccccc1)c1ccccn1` (stereo not drawn) [Doxylamine Succinate], in test [1] (compared to DMSO), the “% Phosphatase Activity (compared to DMSO) PRL-2” value is reported as 83%. In addition, the “% Phosphatase Activity (compared to DMSO) PRL-3” value in test [2] (compared to DMSO) came to 71%. Also, the “% Phosphatase Activity (compared to DMSO) PRL-1” value in test [3] (compared to DMSO) turned out to be 91%.
For `NNC(=O)c1ccncc1` [Isoniazid], the “% Phosphatase Activity (compared to DMSO) PRL-2” value in test [1] (compared to DMSO) stood at 94%. Further, the “% Phosphatase Activity (compared to DMSO) PRL-3” value in test [2] (compared to DMSO) stood at 91%. In addition, the “% Phosphatase Activity (compared to DMSO) PRL-1” value in test [3] (compared to DMSO) is recorded as 91%.
As to `Cc1onc(-c2ccccc2)c1-c1ccc(S(N)(=O)=O)cc1` [Valdecoxib], the “% Phosphatase Activity (compared to DMSO) PRL-2” value in test [1] (activity compared to DMSO) came out at 103%. Besides, in test [2] (activity compared to DMSO), the “% Phosphatase Activity (compared to DMSO) PRL-3” value is 80%. In addition, the “% Phosphatase Activity (compared to DMSO) PRL-1” value in test [3] (activity compared to DMSO) was 97%.
With `Cn1cc[nH]c1=S` [Methimazole], the “% Phosphatase Activity (compared to DMSO) PRL-2” value in test [1] (compared to DMSO) was 97%. In addition, the “% Phosphatase Activity (compared to DMSO) PRL-3” value in test [2] (compared to DMSO) came to 82%. The “% Phosphatase Activity (compared to DMSO) PRL-1” value in test [3] (compared to DMSO) is listed as 104%.
